Measurements: PubChem BioAssay (NCI)
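GI50 = concentration required for 50% inhibition of growth. Definition used: TGI = concentration required for complete inhibition of growth.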

Experiments:
Assay in all cases: NCI tumour cell line growth inhibition, 384-well format
NCI-H522 lung = system: NCI-H522 lung
SNB-19 CNS = system: SNB-19 CNS
MDA-MB-468 breast = system: MDA-MB-468 breast
U251 glioblastoma = system: U251 glioblastoma
HL-60(TB) leukemia = system: HL-60(TB) leukemia
OVCAR-5 ovarian = system: OVCAR-5 ovarian
UACC-257 melanoma = system: UACC-257 melanoma
SK-OV-3 ovarian = system: SK-OV-3 ovarian
MDA-MB-435 melanoma = system: MDA-MB-435 melanoma
NCI-H23 lung = system: NCI-H23 lung
MCF7 breast = system: MCF7 breast
KM12 colon = system: KM12 colon
OVCAR-3 ovarian = system: OVCAR-3 ovarian
NCI/ADR-RES ovarian = system: NCI/ADR-RES ovarian
SNB-75 CNS = system: SNB-75 CNS
M14 melanoma = system: M14 melanoma
A549 NSCLC = system: A549 NSCLC
SR leukemia = system: SR leukemia
IGROV1 ovarian = system: IGROV1 ovarian
HOP-62 NSCLC = system: HOP-62 NSCLC
MOLT-4 leukemia = system: MOLT-4 leukemia
PC-3 prostate = system: PC-3 prostate
HOP-92 NSCLC = system: HOP-92 NSCLC
HCT-116 colon = system: HCT-116 colon
NCI-H322M lung = system: NCI-H322M lung
HCT-15 colon = system: HCT-15 colon
EKVX NSCLC = system: EKVX NSCLC
SF-295 CNS = system: SF-295 CNS
SK-MEL-5 melanoma = system: SK-MEL-5 melanoma

CN1CCN(c2ccc3nc(-c4c(N)c5c(F)cccc5[nH]c4=O)[nH]c3c2)CC1
GI50 (NCI-H522 lung): 0.99 µM | TGI (NCI-H522 lung): 2.16 µM | GI50 (SNB-19 CNS): 1.48 µM | TGI (SNB-19 CNS): 3.12 µM | GI50 (MDA-MB-468 breast): 1.08 µM | TGI (MDA-MB-468 breast): 2.32 µM | GI50 (U251 glioblastoma): 0.714 µM | TGI (U251 glioblastoma): 2.01 µM | GI50 (HL-60(TB) leukemia): 0.357 µM | TGI (HL-60(TB) leukemia): 1.29 µM | GI50 (OVCAR-5 ovarian): 1.4 µM | TGI (OVCAR-5 ovarian): 3.58 µM | GI50 (UACC-257 melanoma): 1.15 µM | TGI (UACC-257 melanoma): 2.38 µM | GI50 (SK-OV-3 ovarian): 0.325 µM | TGI (SK-OV-3 ovarian): 1.47 µM | GI50 (MDA-MB-435 melanoma): 1.28 µM | TGI (MDA-MB-435 melanoma): 2.56 µM | GI50 (NCI-H23 lung): 1.15 µM | TGI (NCI-H23 lung): 2.44 µM | GI50 (MCF7 breast): 1.04 µM | TGI (MCF7 breast): 2.23 µM | GI50 (KM12 colon): 0.0331 µM | TGI (KM12 colon): 1.45 µM | GI50 (OVCAR-3 ovarian): 1.06 µM | TGI (OVCAR-3 ovarian): 2.26 µM | GI50 (NCI/ADR-RES ovarian): 1.61 µM | TGI (NCI/ADR-RES ovarian): 3.06 µM | GI50 (SNB-75 CNS): 0.493 µM | TGI (SNB-75 CNS): 1.8 µM | GI50 (M14 melanoma): 0.34 µM | TGI (M14 melanoma): 1.51 µM | GI50 (A549 NSCLC): 0.72 µM | TGI (A549 NSCLC): 1.99 µM | GI50 (SR leukemia): 0.17 µM | TGI (SR leukemia): 0.337 µM | GI50 (IGROV1 ovarian): 0.276 µM | TGI (IGROV1 ovarian): 1.35 µM | GI50 (HOP-62 NSCLC): 1.08 µM | TGI (HOP-62 NSCLC): 2.32 µM | GI50 (MOLT-4 leukemia): 0.171 µM | TGI (MOLT-4 leukemia): 0.31 µM | GI50 (PC-3 prostate): 1.08 µM | TGI (PC-3 prostate): 3.83 µM | GI50 (HOP-92 NSCLC): 0.645 µM | TGI (HOP-92 NSCLC): 2 µM | GI50 (HCT-116 colon): 0.624 µM | TGI (HCT-116 colon): 1.9 µM | GI50 (NCI-H322M lung): 1.15 µM | TGI (NCI-H322M lung): 2.9 µM | GI50 (HCT-15 colon): 0.417 µM | TGI (HCT-15 colon): 1.63 µM | GI50 (EKVX NSCLC): 1.04 µM | TGI (EKVX NSCLC): 2.39 µM | GI50 (SF-295 CNS): 1.33 µM | TGI (SF-295 CNS): 2.61 µM | GI50 (SK-MEL-5 melanoma): 1.08 µM | TGI (SK-MEL-5 melanoma): 2.28 µM
